{"source": "patent US7022648B2", "about": "“Plant seeds treated with N,N′-substituted ureas” (Stoller Enterprises, Inc., priority 1996, dated 2006)", "assay_type_in_all_cases": "in vivo", "key": {"Corn [1]": {"test_system": "Corn", "experiment": "Greenhouse pot test, seed treatment 0.01 M diformylurea", "conditions": "seed treated, 24 h soak, 30 days", "method": "(§1) Based upon the foregoing preliminary work, additional experiments to investigate the effect of diformylurea on other plant species was undertaken. These experiments were also designed to compare the effect of treating seeds as described above with foliar treatment. Wheat, corn and peanuts were selected for the next phase of this work. Diformylurea was prepared by reacting formic acid and urea at a molar ratio of 2:1 as described above. An aqueous solution containing diformylurea at a concentration of 0.01 M was prepared. For the seed treatment portion of the experiments, the seeds to be treated were soaked in the foregoing solution for about 24 hours before planting. The control seeds were again soaked in water for the same time. Both control and treated seeds were planted in 1 gallon greenhouse pots. Five seeds were planted in each pot. Each pot was thinned to two plants after germination. For the foliar treatment portion of the experiment, plants grown from untreated seeds were sprayed with a solution containing 0.01 M. diformylurea at the three leaf stage. All plants were watered and fertilized as required. Thirty days after planting, the plants were harvested and the roots and shoots examined. The mass of both the roots and shoots and the total mass of the plant in each pot were determined."}, "Peanuts": {"test_system": "Peanuts", "experiment": "Greenhouse pot test, seed treatment 0.01 M diformylurea", "conditions": "seed treated, 24 h soak, 30 days", "method": "as §1"}, "Wheat": {"test_system": "Wheat", "experiment": "Greenhouse pot test, seed treatment 0.01 M diformylurea", "conditions": "seed treated, 24 h soak, 30 days", "method": "as §1"}, "Corn [2]": {"test_system": "Corn", "experiment": "Greenhouse pot test, effect of diformylurea concentration applied to seeds", "conditions": "seed treated, 24 h soak, 30 days; for Roots (gm), Average / Shoots (gm), Average / Total (gm), Average: average of samples; for Roots (gm) / Shoots (gm) / Total (gm): single sample (pot)", "method": "(§2) Additional experiments were designed to study further the effect of the concentration of diformylurea applied to the seeds of several other crops. These experiments were conducted using cotton, rice, corn and soybeans. These experiments were similar to the preliminary experiments described above. The concentrate described above, containing both diformylurea and formate, was used to prepare solutions containing low, medium and high concentrations of diformylurea having, respectively, 0.001 M, 0.01 M and 0.05 M diformylurea. These solutions were used to treat the seeds of cotton, rice, corn and soybeans. Seeds of each of these crops were soaked in water or the prepared aqueous solutions of diformylurea for 24 hours before planting. Five seeds were planted in each of six, 1 gallon greenhouse pots. Pots were thinned to two plants after germination and the plants watered and fertilized as needed for 30 days. Thereafter, the plants were harvested and the mass of the roots, shoots and total mass determined."}, "Cotton": {"test_system": "Cotton", "experiment": "Greenhouse pot test, effect of diformylurea concentration applied to seeds", "conditions": "seed treated, 0.001 M, 24 h soak, 30 days", "method": "as §2"}}, "note": "“And” between values parts separate entries of the source, which are not always exact repeats. Equal entries are not always repeated.", "data": [{"smiles": "O=CNC(=O)NC=O", "note": "[diformylurea, N,N′-diformylurea]", "values": [{"measurement": "Percent Change v. Control, Roots", "setting": "Corn [1]", "value": 30, "unit": "%"}, {"measurement": "Percent Change v. Control, Shoots", "setting": "Corn [1]", "value": 16, "unit": "%"}, {"measurement": "Percent Change v. Control, Total", "setting": "Corn [1]", "value": 24, "unit": "%"}, {"measurement": "Root/Shoot Ratio", "setting": "Corn [1]", "value": 1.80}, {"measurement": "Roots (gm), Average", "setting": "Corn [1]; average of samples", "value": 58.92, "unit": "gm"}, {"measurement": "Shoots (gm), Average", "setting": "Corn [1]; average of samples", "value": 32.73, "unit": "gm"}, {"measurement": "Total (gm), Average", "setting": "Corn [1]; average of samples", "value": 91.65, "unit": "gm"}, {"measurement": "Percent Change v. Control, Roots", "setting": "Peanuts", "value": 17, "unit": "%"}, {"measurement": "Percent Change v. Control, Shoots", "setting": "Peanuts", "value": 31, "unit": "%"}, {"measurement": "Percent Change v. Control, Total", "setting": "Peanuts", "value": 24, "unit": "%"}, {"measurement": "Root/Shoot Ratio", "setting": "Peanuts", "value": 0.98}, {"measurement": "Roots (gm), Average", "setting": "Peanuts; average of samples", "value": 19.93, "unit": "gm"}, {"measurement": "Shoots (gm), Average", "setting": "Peanuts; average of samples", "value": 20.30, "unit": "gm"}, {"measurement": "Total (gm), Average", "setting": "Peanuts; average of samples", "value": 40.23, "unit": "gm"}, {"measurement": "Roots (gm)", "setting": "Peanuts; single sample (pot)", "value": "20.11 gm and 22.04 gm and 21.60 gm and 16.74 gm and 16.46 gm and 22.65 gm"}, {"measurement": "Shoots (gm)", "setting": "Peanuts; single sample (pot)", "value": "20.46 gm and 22.34 gm and 19.03 gm and 17.77 gm and 20.20 gm and 22.00 gm"}, {"measurement": "Total (gm)", "setting": "Peanuts; single sample (pot)", "value": "40.57 gm and 44.38 gm and 40.63 gm and 34.51 gm and 36.66 gm and 44.65 gm"}, {"measurement": "Percent Change v. Control, Roots", "setting": "Wheat", "value": 117, "unit": "%"}, {"measurement": "Percent Change v. Control, Shoots", "setting": "Wheat", "value": 266, "unit": "%"}, {"measurement": "Percent Change v. Control, Total", "setting": "Wheat", "value": 135, "unit": "%"}, {"measurement": "Root/Shoot Ratio", "setting": "Wheat", "value": 4.39}, {"measurement": "Roots (gm), Average", "setting": "Wheat; average of samples", "value": 45.40, "unit": "gm"}, {"measurement": "Shoots (gm), Average", "setting": "Wheat; average of samples", "value": 10.35, "unit": "gm"}, {"measurement": "Total (gm), Average", "setting": "Wheat; average of samples", "value": 55.74, "unit": "gm"}, {"measurement": "Percent Change v. Control, Roots", "setting": "Corn [2]; 0.001 M", "value": 2, "unit": "%"}, {"measurement": "Percent Change v. Control, Shoots", "setting": "Corn [2]; 0.001 M", "value": 5, "unit": "%"}, {"measurement": "Percent Change v. Control, Total", "setting": "Corn [2]; 0.001 M", "value": 3, "unit": "%"}, {"measurement": "Root/Shoot Ratio", "setting": "Corn [2]; 0.001 M", "value": 1.04}, {"measurement": "Roots (gm), Average", "setting": "Corn [2]; 0.001 M", "value": 19.65, "unit": "gm"}, {"measurement": "Shoots (gm), Average", "setting": "Corn [2]; 0.001 M", "value": 18.85, "unit": "gm"}, {"measurement": "Total (gm), Average", "setting": "Corn [2]; 0.001 M", "value": 38.50, "unit": "gm"}, {"measurement": "Roots (gm)", "setting": "Corn [2]; 0.001 M", "value": "18.90 gm and 17.20 gm and 27.00 gm and 19.10 gm and 18.10 gm and 17.60 gm"}, {"measurement": "Shoots (gm)", "setting": "Corn [2]; 0.001 M", "value": "21.10 gm and 14.00 gm and 17.60 gm and 22.00 gm and 18.90 gm and 19.50 gm"}, {"measurement": "Total (gm)", "setting": "Corn [2]; 0.001 M", "value": "40.00 gm and 31.20 gm and 44.60 gm and 41.10 gm and 37.00 gm and 37.10 gm"}, {"measurement": "Percent Change v. Control, Roots", "setting": "Corn [2]; 0.01 M", "value": 9, "unit": "%"}, {"measurement": "Percent Change v. Control, Shoots", "setting": "Corn [2]; 0.01 M", "value": 7, "unit": "%"}, {"measurement": "Percent Change v. Control, Total", "setting": "Corn [2]; 0.01 M", "value": 8, "unit": "%"}, {"measurement": "Root/Shoot Ratio", "setting": "Corn [2]; 0.01 M", "value": 1.09}, {"measurement": "Roots (gm), Average", "setting": "Corn [2]; 0.01 M", "value": 20.92, "unit": "gm"}, {"measurement": "Shoots (gm), Average", "setting": "Corn [2]; 0.01 M", "value": 19.17, "unit": "gm"}, {"measurement": "Total (gm), Average", "setting": "Corn [2]; 0.01 M", "value": 40.09, "unit": "gm"}, {"measurement": "Roots (gm)", "setting": "Corn [2]; 0.01 M", "value": "16.20 gm and 25.10 gm and 24.10 gm and 20.00 gm and 15.30 gm and 24.80 gm"}, {"measurement": "Shoots (gm)", "setting": "Corn [2]; 0.01 M", "value": "18.60 gm and 22.10 gm and 23.00 gm and 16.60 gm and 15.50 gm and 19.70 gm"}, {"measurement": "Total (gm)", "setting": "Corn [2]; 0.01 M", "value": "34.80 gm and 47.20 gm and 47.10 gm and 36.60 gm and 30.80 gm and 44.50 gm"}, {"measurement": "Percent Change v. Control, Roots", "setting": "Corn [2]; 0.05 M", "value": 0, "unit": "%"}, {"measurement": "Percent Change v. Control, Shoots", "setting": "Corn [2]; 0.05 M", "value": "−2", "unit": "%"}, {"measurement": "Percent Change v. Control, Total", "setting": "Corn [2]; 0.05 M", "value": "−1", "unit": "%"}, {"measurement": "Root/Shoot Ratio", "setting": "Corn [2]; 0.05 M", "value": 1.09}, {"measurement": "Roots (gm), Average", "setting": "Corn [2]; 0.05 M", "value": 19.20, "unit": "gm"}, {"measurement": "Shoots (gm), Average", "setting": "Corn [2]; 0.05 M", "value": 17.62, "unit": "gm"}, {"measurement": "Total (gm), Average", "setting": "Corn [2]; 0.05 M", "value": 36.82, "unit": "gm"}, {"measurement": "Roots (gm)", "setting": "Corn [2]; 0.05 M", "value": "17.90 gm and 20.40 gm and 17.80 gm and 21.20 gm and 18.70 gm"}, {"measurement": "Shoots (gm)", "setting": "Corn [2]; 0.05 M", "value": "17.40 gm and 20.60 gm and 15.90 gm and 18.40 gm and 15.80 gm"}, {"measurement": "Total (gm)", "setting": "Corn [2]; 0.05 M", "value": "35.30 gm and 41.00 gm and 33.70 gm and 39.60 gm and 34.50 gm"}, {"measurement": "Percent Change v. Control, Roots", "setting": "Cotton", "value": 159, "unit": "%"}, {"measurement": "Percent Change v. Control, Shoots", "setting": "Cotton", "value": 18, "unit": "%"}, {"measurement": "Percent Change v. Control, Total", "setting": "Cotton", "value": 74, "unit": "%"}, {"measurement": "Root/Shoot Ratio", "setting": "Cotton", "value": 1.46}, {"measurement": "Roots (gm), Average", "setting": "Cotton; average of samples", "value": 7.85, "unit": "gm"}, {"measurement": "Shoots (gm), Average", "setting": "Cotton; average of samples", "value": 5.38, "unit": "gm"}]}]}
